{"source": "patent US8034574B2", "about": "“Screening method for prokinetic agent” (Astellas Pharma Inc., priority 2006, dated 2011)", "key": {"RIN14B cells [1]": {"tested_on": "RIN14B cells", "experiment": "Channel activity in RIN14B cells using calcium-sensitive fluorescent reagent (FLIPR)", "format": "cell-based, rat", "conditions": "siRNA-introduced RIN14B; allyl isothiocyanate 300 μM", "protocol": "RIN14B cells (5×10^4 cells), wherein the expression of TRPA1 was confirmed in Example 10, were incubated in the presence of a calcium-sensitive fluorescent reagent (Fluo3-AM; DOJINDO) at 37° C. for 1 hour to thereby incorporate the calcium-sensitive fluorescent reagent in the cells, after which the cells were washed with physiological saline to remove the calcium-sensitive fluorescent reagent that had not been incorporated in the cells. To the cells obtained, physiological saline supplemented with allyl isothiocyanate, cinnamic aldehyde, or acrolein was added; the fluorescence emitted by the cells was measured over time. The above-described measurements were performed using an automated fluorescence detection apparatus (FLIPR; Molecular Device). […] Ruthenium Red was added concurrently and a measurement was performed to determine whether or not calcium inflow in the cells was be inhibited."}, "RIN14B cells [2]": {"tested_on": "RIN14B cells", "experiment": "Serotonin secretion from RIN14B cells (immunoassay)", "format": "cell-based, rat", "conditions": "siRNA-introduced RIN14B; listed as #971 siRNA", "protocol": "After RIN14B cells in culture in a Petri dish were detached using a PBS containing 1 mM EDTA, they were sown to a 96-well plate and cultured for 2 days. The medium used was RPMI1640 (Invitrogen Japan K.K.) supplemented with 10% fetal bovine serum (ICN), 100 U/ml penicillin, and 100 μg/ml streptomycin. After the cells were once washed with Hanks' Balanced Salt Solutions (HBSS, Invitrogen) supplemented with 0.1% BSA and 10 μM fluoxetine (TOCRIS), each TRPA1 activator, previously diluted/prepared with the above-described HBSS, was added, and the RIN14B cells were cultured at 37° C. in the presence of 5% CO2 for 20 minutes. After the cultivation, the cell supernatant was recovered, and stored under freezing. The serotonin content in the supernatant was measured using a commercially available serotonin immunoassay kit (Beckman)."}, "rat TRPA1 gene": {"tested_on": "rat TRPA1 gene", "experiment": "Suppression of rat TRPA1 gene expression by siRNA in RIN14B cells (real time PCR)", "format": "cell-based", "conditions": "siRNA 10 nM, 2 days", "protocol": "The expression of the TRPA1 gene in rat tissues, a rat EC cell fraction and RIN14B cells was analyzed by real time PCR using a sequence detector (PRISM7900; Applied Biosystems). With the first strand cDNA derived from rat tissue, rat EC cells or RIN14B cells, obtained in the aforementioned Example, as the template, using a fluorescent reagent (SYBR Green PCR Core Reagents Kit; Applied Biosystems), PCR was performed. The aforementioned PCR was performed using an oligonucleotide consisting of the base sequence shown by SEQ ID NO:13 as a sense primer, and an oligonucleotide consisting of the base sequence shown by SEQ ID NO:14 as an antisense primer; first, thermal denaturation was performed at 95° C. (10 minutes), after which a cycle consisting of heat treatment at 95° C. (15 seconds)/59° C. (1 minute) was repeated 45 times. Each primer is a sequence specific for a gene consisting of the base sequence shown by SEQ ID NO:5. […]\nRIN14B cells were sown to a 60 mm Petri dish at 6×10^5 cells and cultured for 1 day. After various sequences of siRNA for rat TRPA1 (10 nM), designed using the siRNA design system siDirect (RNAi), were introduced using a transformation reagent (LIPOFECTAMINE2000; Invitrogen Japan K.K.), the RIN14B cells were further cultured for 2 days, and the expression level of the rat TRPA1 gene was measured. […]"}}}
{"substance": "#971: a rat TRPA1-specific siRNA (sense strand SEQ ID NO:15, antisense strand SEQ ID NO:16) (sense CUGGCAGACUACCUAAUUUCA; antisense AAAUUAGGUAGUCUGCCAGGU; listed as RNA, chemistry not given here)", "values": [{"measurement": "suppression of intracellular calcium inflow activity of allyl isothiocyanate", "setting": "RIN14B cells [1]", "value": 67.3, "unit": "%"}, {"measurement": "serotonin secretion increasing activity of cinnamic aldehyde in siRNA-introduced RIN14B", "setting": "RIN14B cells [2]", "value": "suppressed cinnamic aldehyde-induced serotonin release"}, {"measurement": "expression level of the rat TRPA1 gene", "setting": "rat TRPA1 gene", "value": "a reduction in the expression level of the rat TRPA1 was observed"}]}
